Data from article PMC10385743.
Where “and” joins values, the source holds several entries; their conditions need not be identical. Equal entries are not always repeated.

Legend:
[1] = system: HCV GT 3a (strain S52) subgenomic replicon; experiment: microbe, parasite or virus in culture; assay type: cell-based, hepatitis C virus; details: 72 h; luciferase; mean ± SD; read-out: Huh7.5-3a(S52) (HCV Replicon 3a) EC50
[2] = system: HCV GT 4a (strain ED43) subgenomic replicon; experiment: microbe, parasite or virus in culture; assay type: cell-based, hepatitis C virus; details: 72 h; luciferase; mean ± SD; read-out: Huh7.5-4a(ED43) (HCV Replicon 4a) EC50
[3] = system: YFV (strain 17D) subgenomic replicon; experiment: microbe, parasite or virus in culture; assay type: cell-based, yellow fever virus; details: read-out: Huh7-YF (YFV Replicon 17D) EC50; 72 h; luciferase; mean ± SD
[4] = system: DENV serotype 2 (strain 16681) subgenomic replicon; experiment: microbe, parasite or virus in culture; assay type: cell-based, dengue virus; details: 72 h; luciferase; mean ± SD; read-out: Huh7-D2 (DENV-2 Replicon) EC50
[5] = system: bloodstream form T. b. brucei (strain 221)
[6] = system: T. cruzi (CL Brener strain) epimastigotes; details: read-out: T. cruzi EC50; epimastigotes; mean of triplicate experiments ± SEM
[7] = system: rat skeletal myoblast L6 cells; experiment: Cytotoxicity against cultured L6 cells (resazurin); details: read-out: L6 Cells CC50; mean of triplicate experiments ± SEM
Huh5-2 cells = experiment: Cytotoxicity in Huh5-2 replicon cells (intracellular ATP levels); details: read-out: Huh5-2 (HCV Replicon 1b) CC50; 72 h; ATP levels; mean ± SD; * highest concentration used 10 μΜ

SMILES: CC1CCC2(NC(=O)N(CC(=O)NO)C2=O)c2ccccc21 [Compound 35, Ν-(Hydroxy)-2-((4R,4′R)/(4S,4′S)-4′-methyl-2,5-dioxo-3′,4′-dihydro-2′H-spiro[imidazolidine-4,1′-naphthalene]-1-yl)acetamide]
- EC50 [1]: 770 ± 30 nM
- EC50 [2]: 410 ± 20 nM
- EC50 [3]: > 10000 nM
- EC50 [4]: > 10000 nM
- EC50 ([5]; read-out: T. brucei EC50, cultured bloodstream form, mean of triplicate experiments ± SEM): 560 ± 70 nM
- EC90 ([5]; read-out: T. brucei EC90, cultured bloodstream form, mean of triplicate experiments ± SEM): 860 ± 190 nM
- SI (CC50 for L6 cells / EC50 for T. brucei) ([5]; selectivity index): 400
- EC50 [6]: > 30000 nM
- CC50 [7]: > 200000 nM and 224000 nM
- CC50 (Huh5-2 cells): > 200000 nM
